According to patent US20140107054A1, “Method of treating clostridium difficile-associated diarrhea” (priority 2006, published 2014):
Values after ≈ are worked out from the molar mass of the structure shown. Values joined by “and” are separate entries in the source; they are usually repeats but may differ in a detail not shown here. Equal values may be shown once.

Tests used:
C. difficile (17857) = experiment: MIC, CLSI agar dilution, different lots of media; type: cell-based, Clostridium difficile; conditions: Clostridioides difficile
Source text: (§1) Laboratory strains of Clostridium difficile 9689, 700057, 43255, 17857 and Eubacterium lentum 43055 were obtained from American Type Culture Collection (ATCC). […] Broth dilution is not a validated method for MIC testing of Clostridium; however, due to potential inaccuracy of measuring the pH of solid agar after equilibration inside the anaerobic chamber, both methods were used and compared for the assessment of pH effects.

C. difficile (43255) = experiment: MIC, CLSI agar dilution, different lots of media; type: cell-based, Clostridium difficile; conditions: for MIC: Clostridioides difficile
Source text: as §1

C. difficile ATCC 9689 [1] = experiment: MIC, CLSI agar dilution; type: cell-based, Clostridium difficile; conditions: for MIC: Clostridioides difficile, different lots of media
Source text: (§2) Laboratory strains of Clostridium difficile 9689, 700057, 43255, 17857 and Eubacterium lentum 43055 were obtained from American Type Culture Collection (ATCC). […] Broth dilution is not a validated method for MIC testing of Clostridium; however, due to potential inaccuracy of measuring the pH of solid agar after equilibration inside the anaerobic chamber, both methods were used and compared for the assessment of pH effects. […] Even with strong buffering, the pH shifted slightly following equilibration in the anaerobic gas, and thus in some cases media was titered in ambient air to above the desired anaerobic pH. The actual pH was always confirmed following equilibration inside the anaerobic chamber. […] The level of divalent cations in the Brucella broth as acquired from the manufacturer were determined by the Laboratory Specialists, Inc.

[2] = system: Eubacterium lentum (43055); experiment: MIC, CLSI agar dilution, different lots of media (QC organism); type: cell-based; conditions: Eggerthella lenta
Source text: as §1

[3] = Fold increase in MIC relative to tiacumicin B (API mixture profile table); type: cell-based
C. difficile ATCC 700057 [4] = experiment: MIC, broth microdilution (pH effect); type: cell-based, Clostridium difficile; conditions: in µg/mL
C. difficile = experiment: Quantitative stool cultures of Phase 2A patients, C. difficile counts; type: in vivo, human; conditions: all patients except one receiving 50 mg; 50, 100 or 200 mg twice daily for 10 days (vancomycin 125 mg qid)
C. difficile ATCC 9689 [5] = experiment: MIC, broth microdilution (pH effect); type: cell-based, Clostridium difficile; conditions: in µg/mL
C. difficile strains [6] = experiment: MIC, agar dilution, statements for C. difficile strains together; type: cell-based, Clostridium difficile
Source text: as §2

Bacteroides group = experiment: Quantitative stool cultures of Phase 2A patients, Bacteroides group counts; type: in vivo, human
C. difficile strains [7] = experiment: MIC, broth microdilution, statements for both C. difficile strains; type: cell-based, Clostridium difficile; conditions: all three experiments
C. difficile ATCC 700057 [8] = experiment: MIC, CLSI agar dilution; type: cell-based, Clostridium difficile
Source text: as §2

[9] = anaerobic pH 6.7, 10 mM NaH2PO4 pH 7.0 (air)
[10] = anaerobic pH 6.8, 100 mM NaH2PO4 pH 7.0 (Air)
[11] = anaerobic pH 7.2, 10 mM MOPS pH 8.0 (Air)
[12] = anaerobic pH 7.5, 100 mM MOPS pH 8.0 (Air)
[13] = anaerobic pH 7.6, 10 mM TAPS pH 9.0 (Air)
[14] = anaerobic pH 8, 100 mM TAPS pH 9.0 (Air)
[15] = anaerobic pH 8.1, 100 mM TAPS pH 9.5 (Air)
[16] = strongly buffered series, anaerobic pH 6, pH 6.0 (Air)
[17] = unbuffered media, anaerobic pH 5.9
[18] = unbuffered media, anaerobic pH 6.6
[19] = unbuffered media, anaerobic pH 7.1
[20] = unbuffered media, anaerobic pH 7.5
[21] = weakly buffered series, anaerobic pH 6, pH 6.0 (Air)
[22] = anaerobic pH 7, 100 mM NaH2PO4, pH 7.2 (Air)

CCC[C@@H]1C[C@@H](C(=O)N[C@@H]([C@H]2O[C@H](SC)[C@H](O)[C@@H](O)[C@H]2O)[C@H](C)Cl)N(C)C1 [Clindamycin, clindamycin]
MIC (C. difficile (17857); 24 h, Day 1): 4 µg/mL (≈ 9.41 µM)
MIC (C. difficile (17857); 48 h, Day 2): 2 µg/mL (≈ 4.71 µM)
MIC (C. difficile (17857); 72 h, Day 3): 4 µg/mL (≈ 9.41 µM)
MIC (C. difficile (43255); 24 h, Day 1): 8 µg/mL (≈ 18.8 µM)
MIC (C. difficile (43255); 48 h, Day 2): 4 µg/mL (≈ 9.41 µM)
MIC (C. difficile (43255); 72 h, Day 3): 8 µg/mL (≈ 18.8 µM)
MIC values (C. difficile (43255); Day 2): 8 µg/mL (≈ 18.8 µM)
MIC (C. difficile ATCC 9689 [1]; ATCC9689, 24 h, Day 1): 4 µg/mL (≈ 9.41 µM)
MIC (C. difficile ATCC 9689 [1]; ATCC9689, 48 h, Day 2): 4 µg/mL (≈ 9.41 µM)
MIC (C. difficile ATCC 9689 [1]; ATCC9689, 72 h, Day 3): 4 µg/mL (≈ 9.41 µM)
MIC ([2]; 24 h, Day 1): 0.25 µg/mL (≈ 0.588 µM)
MIC ([2]; 48 h, Day 2): 0.25 µg/mL (≈ 0.588 µM)
MIC ([2]; 72 h, Day 3): 0.125 µg/mL (≈ 0.294 µM)

CCC1/C=C(\C)C(O)C/C=C/C=C(\COC2OC(C)C(OC(=O)c3c(C)c(Cl)c(O)c(Cl)c3O)C(O)C2OC)C(=O)CC(C(C)O)C/C=C(C)/C=C(\C)C1OC1OC(C)(C)C(OC(=O)C(C)C)C(O)C1O (centres unmarked) [OP-1405, lipiarmycin A4]
fold increased in MIC relative to tiacumicn B [3]: 1-4x

CCc1c(Cl)c(O)c(Cl)c(O)c1C(=O)O[C@H]1[C@H](O)[C@H](OC)[C@H](OC/C2=C\C=C\C[C@H](O)/C(C)=C/[C@H](CC)[C@@H](O[C@@H]3OC(C)(C)[C@@H](OC(=O)C(C)C)[C@H](O)[C@@H]3O)/C(C)=C/C(C)=C/C[C@@H](C(C)O)OC2=O)O[C@@H]1C (some centres unmarked) [OP-1441, tiacumicin B]
fold increased in MIC relative to tiacumicn B [3]: 1x

CCc1c(Cl)c(O)c(Cl)c(O)c1C(=O)OC1C(C)OC(OC/C2=C/C=C/CC(O)/C(C)=C/C(CC)C(OC3OC(C)(C)C(O)C(O)C3OC(=O)C(C)C)/C(C)=C/C(C)=C/CC(C(C)O)OC2=O)C(OC)C1O (centres unmarked) [OP-1432, tiacumicin C]
fold increased in MIC relative to tiacumicn B [3]: 8-16x

CCC1CC=C(C)C=C(C)C(OC2OC(C)(C)C(OC(C)=O)C(O)C2O)C(CC)C=C(C)C(O)CC=CC=C(C)C(=O)O1 (centres unmarked) [OP-1434, tiacumicin A]
fold increased in MIC relative to tiacumicn B [3]: >32x

CCC(=O)OC1C(O)C(O)C(OC2/C(C)=C/C(C)=C/CC(C(C)O)OC(=O)/C(COC3OC(C)C(OC(=O)c4c(O)c(Cl)c(O)c(Cl)c4CC)C(O)C3OC)=C/C=C/CC(O)/C(C)=C/C2CC)OC1(C)C (centres unmarked) [OP-1417]
fold increased in MIC relative to tiacumicn B [3]: 2-4x

CCc1c(Cl)c(O)c(Cl)c(O)c1C(=O)OC1C(C)OC(OC/C2=C\C=C\CC(O)/C(C)=C/C(CC)C(OC3OC(C)(C)C(OC(C)=O)C(O)C3O)/C(C)=C/C(C)=C/CC(C(C)O)OC2=O)C(OC)C1O (centres unmarked) [OP-1416]
fold increased in MIC relative to tiacumicn B [3]: 2-4x

CCc1c(Cl)c(O)c(Cl)c(O)c1C(=O)OC1C(C)OC(OC/C2=C\C=C\CC(O)/C(C)=C/C(CC)C(OC3OC(C)(C)C(OC(=O)CC(C)C)C(O)C3O)/C(C)=C/C(C)=C/CC(C(C)O)OC2=O)C(OC)C1O (centres unmarked) [OP-1437]
fold increased in MIC relative to tiacumicn B [3]: 2x

CCc1c(Cl)c(O)c(Cl)c(O)c1C(=O)OC1C(C)OC(OC/C2=C\C=C\CC(O)/C(C)=C/C(CC)C(OC3OC(C)(C)C(OC(=O)C(C)C)C(O)C3O)/C(C)=C/C(C)=C/CC(C(C)=O)OC2=O)C(OC)C1O (centres unmarked) [OP-1402]
fold increased in MIC relative to tiacumicn B [3]: 2-4x

CN[C@H](CC(C)C)C(=O)N[C@H]1C(=O)N[C@@H](CC(N)=O)C(=O)N[C@H]2C(=O)N[C@H]3C(=O)N[C@H](C(=O)N[C@H](C(=O)O)c4cc(O)cc(O)c4-c4cc3ccc4O)[C@H](O)c3ccc(c(Cl)c3)Oc3cc2cc(c3O[C@@H]2O[C@H](CO)[C@@H](O)[C@H](O)[C@H]2O[C@H]2C[C@](C)(N)[C@H](O)[C@H](C)O2)Oc2ccc(cc2Cl)[C@H]1O [Vancomycin, vancomycin]
MIC (C. difficile ATCC 700057 [4]; [9]): 1
MIC (C. difficile ATCC 700057 [4]; [10]): 2
MIC (C. difficile ATCC 700057 [4]; [11]): 2
MIC (C. difficile ATCC 700057 [4]; [12]): 4
MIC (C. difficile ATCC 700057 [4]; [13]): 4
MIC (C. difficile ATCC 700057 [4]; [14]): 8
MIC (C. difficile ATCC 700057 [4]; [15]): 8
MIC (C. difficile ATCC 700057 [4]; [16]): 1
MIC (C. difficile ATCC 700057 [4]; [17]): 0.5
MIC (C. difficile ATCC 700057 [4]; [18]): 1
MIC (C. difficile ATCC 700057 [4]; [19]): 1 and 2
MIC (C. difficile ATCC 700057 [4]; [20]): 2 and 4
MIC (C. difficile ATCC 700057 [4]; [21]): 0.5
C. difficile quantitative counts at day 10 (C. difficile): similarly effective
MIC (C. difficile ATCC 9689 [5]; [9]): 1
MIC (C. difficile ATCC 9689 [5]; [10]): 1 and 2
MIC (C. difficile ATCC 9689 [5]; [11]): 2
MIC (C. difficile ATCC 9689 [5]; [12]): 4
MIC (C. difficile ATCC 9689 [5]; [13]): 4
MIC (C. difficile ATCC 9689 [5]; [14]): >8
MIC (C. difficile ATCC 9689 [5]; [15]): >8
MIC (C. difficile ATCC 9689 [5]; [16]): 1 and 0.5
MIC (C. difficile ATCC 9689 [5]; [17]): 0.5 and 1
MIC (C. difficile ATCC 9689 [5]; [18]): 0.5 and 1
MIC (C. difficile ATCC 9689 [5]; [19]): 2
MIC (C. difficile ATCC 9689 [5]; [20]): 4
MIC (C. difficile ATCC 9689 [5]; [21]): 0.5
Effect of inoculum density on MIC (C. difficile strains [6]; 10^5-10^8 cfu/ml (10^2-10^5 CFU/spot), ATCC 9689 and ATCC 700057, highest over lowest inoculum density): fourfold increase in MIC
Effect on Bacteroides counts during therapy (Bacteroides group; 125 mg qid for 10 days): severely impairs Bacteroides counts
Bacteroides group counts/gm feces wet weight, mean ± SD (Bacteroides group; Day 0, 125 mg qid (n = 7)): 7.39 ± 2.67 log10 CFU
MIC at highest pH treatment relative to lowest pH treatment (C. difficile strains [7]): 4-8 fold
agar dilution MIC (C. difficile ATCC 9689 [1]; [22]): 4
agar dilution MIC (C. difficile ATCC 9689 [1]; pH 6.7, unbuffered column): 1 (pH 6.7)
In vitro activity (MIC) (C. difficile ATCC 700057 [8]; agar dilution, inoculum density 1.48 × 10^8 cfu/ml, 1.48 × 10^5): 2 µg/mL
agar dilution MIC (C. difficile ATCC 700057 [8]; [22]): 4
agar dilution MIC (C. difficile ATCC 700057 [8]; pH 6.7, unbuffered column): 2 (pH 6.7)

CCc1c(Cl)c(O)c(Cl)c(O)c1C(=O)OC1C(C)OC(OC/C2=C/C=C/CC(O)/C(C)=C/C(CC)C(OC3OC(C)(C)C(O)C(OC(=O)C(C)C)C3O)/C(C)=C/C(C)=C/CC(C(C)O)OC2=O)C(OC)C1O (centres unmarked) [OP-1431, tiacumicin F]
fold increased in MIC relative to tiacumicn B [3]: 8x

Cc1ncc([N+](=O)[O-])n1CCO [Metronidazole, metronidazole]
MIC values range in our laboratory (C. difficile strains [6]; control vs. C. difficile strains): 0.25 to 0.5 µg/mL
MIC ([2]; 24 h, Day 1): 1 µg/mL (≈ 5.84 µM)
MIC ([2]; 48 h, Day 2): 0.25 µg/mL (≈ 1.46 µM)
MIC ([2]; 72 h, Day 3): 1 µg/mL (≈ 5.84 µM)
